Measurements taken from US20050255469A1, “Human 5-ht7 receptor promoter sequence” (priority 2002, published 2005).
Entries after “also recorded” stand apart in the source; their conditions may differ.

Columns and labels:
5-HT7 receptor promoter = test: transient transfection luciferase reporter assay with 5-HT7 promoter constructs in HEK293T cells, barbiturate treatment; assay type: cell-based, human
Experimental: HEK293T cells were maintained in Dulbecco's modified Eagle's medium supplemented with 100 units/ml penicillin, 100 μg/ml streptomycin, and 10% newborn calf serum. These cells were maintained at 37° C. in a humidified atmosphere of 5% CO2.
10^5 cells/cm^2 in 24-well dishes were transfected with 150 ng promoter plasmid and 50 ng neogal (served as an internal control), using the standard calcium phosphate coprecipitation method. 24 hours after transfection, cells were washed once with PBSA and lysed in 150 μl 100 mM potassium phosphate (pH 7.8), 0.2% Triton X-100. The samples were analyzed for luciferase activity as described previously (Vanden Berghe et al., 1998). β-Galactosidase activity was measured using Galacto Star (Tropix) as substrate. For the barbiturate experiments, treatment with different barbiturates started 24 hours after transfection of the cells
According to MatInspector, a putative BARBIE (Barbiturate Inducible Element) is present in the promoter region of the 5-HT7 receptor. To investigate the possible influence of barbiturates on 5-HT7 promoter activity, we transiently transfected HEK293T cells with the different promoter constructs and treated the transfected cells with barbiturates for 24 h (FIG. 6a). […] The reduction varied from 30-50% depending on the promoter construct used and the type of barbiturate.

5-HT7 mRNA = test: RT-PCR analysis of endogenous 5-HT7 mRNA levels in 1321-N1 cells; assay type: cell-based; settings: 1321-N1 human astrocytoma cells, different concentrations, 24 h
Experimental: (§1) 132-1N1 human astrocytoma cells were seeded into 58 cm^2 plates; 12 hours after seeding the cells were cultured with either medium alone (−) or medium containing 10 nM, 100 nM, 500 nM, 1 μM, 2 μM or 5 μM Mithramycin A (Serva). Total RNA was isolated using a RNeasy, total RNA isolation kit (Qiagen). cDNA was synthesized using AMV reverse transcriptase (Promega). The cDNA was then amplified by PCR in a total volume of 30 μl containing 10 pmol of each primer, 200 μM dNTP, Taq DNA polymerase buffer, 2,5 units of Taq and 5 μl of cDNA. PCR conditions were 94° C., 30 sec; 56° C., 1 min; 72° C., 2 min; for 35 cycles. PCR products were analyzed by electrophoresis through 6% polyacrylamide gel.

5-HT7 promoter = test: luciferase reporter assay in NS20Y cells transiently transfected with the F1000 construct, mithramycin A treatment; assay type: cell-based, mouse; settings: increasing concentrations, 24 h
Experimental: N2A and NS20Y cells were maintained in Dulbecco's modified Eagle's medium supplemented with 100 units/ml penicillin, 100 μg/ml streptomycin, and 10% foetal calf serum. These cells were maintained at 37° C. in a humidified atmosphere of 5% CO2. 4×10^5 cells in 6 well dishes were transfected with 500-1000 ng promoter construct and 300 ng neogal (served as internal control), using JetPEI a cationic polymer transfection reagent (Qbiogene).
Cells were treated with different concentrations of Mithramycin A for 24 hours.
The significance of binding by Sp1 to the 5-HT7 promoter for transcriptional activity was confirmed in experiments with mithramycin A, a compound that interferes with Sp1 binding to GC boxes in DNA.

GAPDH = test: RT-PCR analysis of GAPDH mRNA levels in 1321-N1 cells; assay type: cell-based, human; settings: different concentrations, 24 h
Experimental: as §1

5-HT7 receptor = 5-HT7 receptor (Homo sapiens, UniProt P34969); settings: cited from earlier work
Chain of 5-HT7 receptor (P34969 whole entry): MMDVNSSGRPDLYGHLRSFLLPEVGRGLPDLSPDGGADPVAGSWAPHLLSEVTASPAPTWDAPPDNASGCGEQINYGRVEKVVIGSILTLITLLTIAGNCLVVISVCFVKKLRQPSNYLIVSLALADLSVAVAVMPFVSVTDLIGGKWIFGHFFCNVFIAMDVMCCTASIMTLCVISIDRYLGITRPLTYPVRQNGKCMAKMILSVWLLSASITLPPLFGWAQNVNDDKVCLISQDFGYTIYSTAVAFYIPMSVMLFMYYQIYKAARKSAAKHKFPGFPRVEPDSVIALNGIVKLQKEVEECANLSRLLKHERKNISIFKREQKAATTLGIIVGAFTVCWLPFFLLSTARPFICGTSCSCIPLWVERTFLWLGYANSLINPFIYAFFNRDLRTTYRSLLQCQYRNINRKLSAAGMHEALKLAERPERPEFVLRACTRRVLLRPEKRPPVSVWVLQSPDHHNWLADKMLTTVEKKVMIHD

[1] = test system: circadian rhythm of hamsters; settings: cited from earlier work
[2] = time course, HEK293T cells, 2000luc+ and 1000luc+, 1.5 mM

CCC1(c2ccccc2)C(=O)NC(=O)NC1=O [Phenobarbital]
time at which repressive effect reached a maximum (5-HT7 receptor promoter; [2]): 16 h
time at which repressive effect was already present (5-HT7 receptor promoter; [2]): ≤ 6 h

CCC1(CCC(C)C)C(=O)NC(=O)NC1=O [Amobarbital]
relative potency in repressing promoter activity (5-HT7 receptor promoter; HEK293T cells, 1,5 mM, 24 h, Amobarbital versus Phenobarbital): somewhat more potent
effect on 5-HT7 receptor promoter activity (5-HT7 receptor promoter; HEK293T cells, transient transfection, 1.5 mM barbiturate, 24 h): repress 5-HT7 receptor promoter activity

mithramycin A
5-HT7 mRNA levels (5-HT7 mRNA): significant decrease
5-HT7 promoter activity (5-HT7 promoter): dose-dependent loss of promoter activity; also recorded: inhibits 5-HT7 promoter activity
levels of GAPDH (GAPDH): unaffected

CCCN(CCC)C1CCc2cccc(O)c2C1 (stereo not drawn) [8-OH-DPAT]
affinity for the 5-HT7 receptor (5-HT7 receptor): high affinity
effect on circadian rhythm [1]: shifted the circadian rhythm
